Here are results for 31 molecules from patent US11952358B2, “Flavan-3-ol analogs and anti-inflammatory activity” (Hong Kong Baptist University, priority 2021, dated 2024).

For data set [1], the system named is IL-1β. Description: ELISA of IL-1β secretion from LPS-stimulated RAW 264.7 cells. It counts as cell-based, mouse. As to conditions: compound 50 μM 24 h, then LPS 1 μg/mL 2 h (FIG. 8). The procedure:
RAW 264.7 cells were pretreated with each compound (50 μM) for 24 h followed by LPS (1 μg/mL) stimulation for another 2 h. The concentrations of IL-1β in RAW 264.7 cell culture supernatants were measured by ELISA kits and the inhibition rate of compound on the secretion of each pro-inflammatory cytokine was calculated. Data from three independent experiments were expressed as means±SD. *P<0.05, **P<0.01 compared with LPS-stimulated group.
Cell culture The RAW 264.7 cell line was purchased from the Cell Bank of Shanghai Institute of Biochemistry & Cell Biology at the Chinese Academy of Sciences (Shanghai, China) and cultured in DMEM supplemented with 10% (v/v) fetal bovine serum (FBS), 100 U/ml penicillin and 100 […], in a stable environment with 5% CO2 at 37° C. Before used in the following in vitro experiments, RAW 264.7 cells were pretreated with synthesized flavan-3-ol (25, 50 μM) for 24 h followed by LPS (1 μg/mL) stimulation for another 2 h.
Enzyme-Linked Immunosorbent Assay (ELISA) RAW 264.7 cells were treated with these synthesized flavan-3-ols (25, 50 μM) for 24 h followed by LPS (1 μg/mL) stimulation for another 2 h and the culture supernatant was collected. The concentrations of IL-1β, IL-6 and TNF-α in the culture supernatant of RAW 264.7 cells were determined according to the manufacturer's instructions of the Duo-set enzyme linked immune sorbent assay kits, purchased from R&D Systems Co. Ltd. (Minneapolis, MN, USA).
The increased pro-inflammatory cytokines production in RAW 264.7 cells has been reported to play an influential role in the inflammation response. To evaluate the anti-inflammatory effects of these flavan-3-ols in vitro, ELISA kits were employed to investigate their effects on the LPS (lipopolysaccharide)-induced pro-inflammatory cytokines production of RAW 264.7 cells. After treating with the flavan-3-ols (25 and 50 μM) and stimulated by LPS, the levels of three main pro-inflammation cytokines including IL-1β ([…]), IL-6 (interleukin-6), and TNF-α (tumor necrosis factor-α) in culture supernatant from RAW 264.7 cells were measured by ELISA kits, and then the inhibition rates of the flavan-3-ols on the secretion of each pro-inflammatory cytokine were calculated by the formula shown as follows.
[formula] In this formula, “L” refers to “the pro-inflammatory cytokine level in cell culture supernatant of LPS-induced group (L)” and “Lc” refers to “the pro-inflammatory cytokine level in cell culture supernatant of compound-treated group (Lc)”. Using this calculation, the reduced levels of pro-inflammation cytokines in the compound treated group would give higher values, which reflect higher inhibition rates.
FIG. 4a-c show the effect of flavan-3-ols on pro-inflammatory cytokine secretion in vitro. RAW 264.7 cells were pretreated with each compound (25, 50 μM) for 24 h followed by LPS (1 μg/mL) stimulation for another 2 h. The concentrations of IL-1β, IL-6, TNF-α in RAW 264.7 cell culture supernatants were measured by ELISA kits and the inhibition rate of compound on the secretion of each pro-inflammatory cytokine was calculated.
Background: ELISA stands for enzyme-linked immunosorbent assay.

Data set [2] has as its system LPS-stimulated RAW 264.7 cells. In words: RNA-sequencing analysis with GO and KEGG enrichment. It counts as cell-based, mouse. Particulars: 50 μM; vs LPS-stimulated group; KEGG-classified inflammation-related genes. The procedure: RNA-sequencing analysis RAW 264.7 cells were treated with each flavan-3-ol (25, 50 μM) for 24 h followed by LPS (1 μg/mL) stimulation for another 2 h. Cells were collected and then directly prepared for cDNAs amplification and RNA-Seq library construction. Total RNA was isolated with TRIzol reagent from each group. A complementary DNA library was prepared and sequencing was performed according to the Illumina standard protocol developed by Suzhou GENEWIZ Biological Technology Co., Ltd. (https://www.genewiz.com). […] After filtering, reference genome and gene model annotation files were downloaded from a genome website browser (NCBI/UCSC/Ensembl). Indexes of the reference genome were built using Bowtie v2.0.6 and paired-end clean reads were aligned to the reference genome using TopHat v2.0.9. Bowtie was used for a BWT (Burrows-Wheeler Transformer) algorithm for mapping reads to the genome and Tophat can generate a database of splice junctions based on the gene model annotation file and thus achieve a better mapping result than other non-splice mapping tools. For the quantification of gene expression level, HTSeq V0.6.1 was used to count the read numbers mapped for each gene. The RPKM of each gene was calculated based on the gene read counts mapped to this gene. A differential expression analysis was performed using the DESeq R package (1.10.1). For clustering, the inventors clustered different samples to see the correlation using hierarchical clustering distance method with the function of heatmap, SOM (Self-organization mapping) and k means using silhouette coefficient to adapt the optimal classification with default parameter in R. The complete RNA-seq datasets in this manuscript captioned has been deposited at GEO database (http://www.ncbi.nlm.nih.gov/geo/) under accession ID GSE181052.
Gene ontology (GO) and KEGG enrichment analysis GO enrichment analysis of differentially expressed genes was implemented by the GOseq R Package, in which gene length bias was corrected. GO analysis was performed with the DAVID online tool (https://david.ncifcrf.gov/). Top GO categories were selected according to the P-values. Pathways of differentially expressed genes were analyzed by the KEGG database (http://www.kegg.jp/kegg/). The inventors used KOBAS software to test the statistical enrichment of differential expression genes in KEGG pathways.
RNA-seq analysis of downstream genes regulated by flavan-3-ols. […] RNA-seq analysis was performed to further study the effects of compounds 3m, 3o, 3p, 3ae and 3ag on gene transcriptional pathways related to inflammation. RAW 264.7 cells were used in the RNA-seq analysis, in which cells were pretreated with each compound (50 μM) for 24 h followed by LPS (1 μg/mL) stimulation for another 2 h. […] Next, the inventors focused on genes related to inflammatory reactions and inflammation-related diseases (inflammation-related genes) based on the gene and pathway classification of Kyoto Encyclopedia of Genes and Genomes (KEGG database).
To further analyze the functional distribution of differentially-expressed genes in relation to different biological processes, cellular components and molecular functions, gene ontology (GO) enrichment analysis was performed. The histogram of GO enrichment of differentially-expressed genes was presented.
Furthermore, to determine the biochemical metabolic pathways and signal transduction pathways involved in differentially expressed genes regulated by compound 3ag, KEGG pathway analysis was then performed.

What is called melting point is the temperature, or range, at which the solid turns liquid.

Molecules are shown by their SMILES.

`Cc1cccc([C@H]2Oc3ccccc3C[C@@H]2O)c1` [3k, (2R,3S)-2-(m-tolyl)chroman-3-ol] gave a melting point of 88 to 89 °C.

Molecule `Cc1ccc2c(c1)O[C@H](c1ccccc1)[C@@H](O)C2` [3s, (2R,3S)-7-methyl-2-phenylchroman-3-ol] registered a melting point of 95 to 96 °C. Molecule `Cc1cccc2c1O[C@H](c1ccccc1)[C@@H](O)C2` [3t, (2R,3S)-8-methyl-2-phenylchroman-3-ol] showed a melting point of 68 to 69 °C.

Regarding `Oc1ccc2c(c1)C[C@H](O)[C@@H](c1ccccc1)O2` [3ac, (2R,3S)-2-phenylchromane-3,6-diol], the melting point was 187 to 188 °C. Same read-out and setting: under `Oc1ccc([C@H]2Oc3ccccc3C[C@@H]2O)cc1` [compound 5, (2R,3S)-2-(4-hydroxyphenyl)chroman-3-ol] stands 106 to 107 °C; under `Cc1cc(C)cc([C@H]2Oc3ccccc3C[C@@H]2O)c1` [3l, (2R,3S)-2-(3,5-dimethylphenyl)chroman-3-ol], 135 to 136 °C. The same measure, in the same setting: then `O[C@H]1Cc2ccccc2O[C@@H]1c1ccc(Cl)cc1` [3g, (2R,3S)-2-(4-chlorophenyl)chroman-3-ol], with 109 to 110 °C; and `O[C@H]1Cc2ccccc2O[C@@H]1c1ccc(OCc2ccccc2)cc1` [3d, (2R,3S)-2-(4-(benzyloxy)phenyl)chroman-3-ol], with 113 to 114 °C; and `COCOc1ccc([C@H]2Oc3ccccc3C[C@@H]2O)cc1` [3e, (2R,3S)-2-(4-(methoxymethoxy)phenyl)chroman-3-ol], with 97 to 98 °C.

With `Cc1cccc2c1C[C@H](O)[C@@H](c1ccccc1)O2` [3q, (2R,3S)-5-methyl-2-phenylchroman-3-ol], the melting point lay in the range of 116 to 117 °C. For the molecule `COc1ccc([C@H]2Oc3ccccc3C[C@@H]2O)cc1` [3c, (2R,3S)-2-(4-methoxyphenyl)chroman-3-ol], the melting point is 89 to 90 °C. Same read-out and setting: then `Cc1ccc([C@H]2Oc3ccccc3C[C@@H]2O)cc1` [3b, (2R,3S)-2-(p-tolyl)chroman-3-ol], with 68 to 69 °C. The molecule `O[C@H]1Cc2ccccc2O[C@@H]1c1ccc2ccccc2c1` [3m, (2R,3S)-2-(naphthalen-2-yl)chroman-3-ol] showed a melting point of 141 to 142 °C. Further, in data set [1], the “inhibition rate of IL-1β secretion compared with enantiomer and racemic form” value is “higher inhibition rates than their enantiomers”. For the same molecule, the inflammation-related genes downregulated entry in data set [2] is listed as “downregulated parts of inflammation-related genes”.

In the case of `COCOc1ccc2c(c1)C[C@H](O)[C@@H](c1ccccc1)O2` [3ab, (2R,3S)-6-(methoxymethoxy)-2-phenylchroman-3-ol], the melting point fell in the range of 65 to 66 °C.

As to `O[C@H]1Cc2ccccc2O[C@@H]1c1ccco1` [3o, (2S,3S)-2-(furan-2-yl)chroman-3-ol], the melting point lay in the range of 80 to 81 °C. Moreover, the “inhibition rate of IL-1β secretion compared with enantiomer and racemic form” value in data set [1] is on record as “higher inhibition rates than their enantiomers”. Also, the inflammation-related genes downregulated entry in data set [2] was “downregulated parts of inflammation-related genes”. The molecule `Cc1ccc2c(c1)C[C@H](O)[C@@H](c1ccccc1)O2` [3r, (2R,3S)-6-methyl-2-phenylchroman-3-ol] showed a melting point of 109 to 110 °C.

With `COc1cccc2c1O[C@H](c1ccccc1)[C@@H](O)C2` [3z, (2R,3S)-8-methoxy-2-phenylchroman-3-ol], the melting point lay within 151 to 152 °C. The same measure, in the same setting: then `O[C@H]1Cc2ccccc2O[C@@H]1c1ccc(Br)cc1` [3h, (2R,3S)-2-(4-bromophenyl)chroman-3-ol], with 109 to 110 °C. Still for that read-out and setting: under `Cc1ccccc1[C@H]1Oc2ccccc2C[C@@H]1O` [3j, (2R,3S)-2-(o-tolyl)chroman-3-ol] stands 91 to 92 °C; under `COc1cccc2c1C[C@H](O)[C@@H](c1ccccc1)O2` [3w, (2R,3S)-5-methoxy-2-phenylchroman-3-ol], 116 to 117 °C; under `COCOc1ccc2c(c1)C=C[C@H](c1ccccc1)O2` [1ab, (R)-6-(methoxymethoxy)-2-phenyl-2H-chromene], 69 to 70 °C. With `CCC[C@H]1Oc2ccccc2C[C@@H]1O` [3p, (2R,3S)-2-propylchroman-3-ol], in data set [2], the inflammation-related genes downregulated entry was “downregulated parts of inflammation-related genes”.

Molecule `Cc1cc2c(cc1Cl)C[C@H](O)[C@@H](c1ccccc1)O2` [3af, (2R,3S)-6-chloro-7-methyl-2-phenylchroman-3-ol] had a melting point of 129 to 130 °C. The same measure, in the same setting: then `COc1ccc2c(c1)C[C@H](O)[C@@H](c1ccccc1)O2` [3x, (2R,3S)-6-methoxy-2-phenylchroman-3-ol], with 118 to 119 °C. `CCC[C@@H]1Oc2ccccc2C[C@H]1O` [3p′, (2S,3R)-2-propylchroman-3-ol]: in data set [1], the “inhibition rate of IL-1β secretion compared with enantiomer and racemic form” value is listed as “higher inhibition rate of IL-1β secretion than its racemic mixture”.

As to `Cc1cc2c(cc1C)O[C@H](c1ccccc1)[C@@H](O)C2` [3v, (2R,3S)-6,7-dimethyl-2-phenylchroman-3-ol], the melting point lay in the range of 151 to 152 °C.

In the case of `O[C@H]1Cc2cc(Cl)ccc2O[C@@H]1c1ccc(Cl)cc1` [3ah, (2R,3S)-6-chloro-2-(4-chlorophenyl)chroman-3-ol], the melting point is 138 to 139 °C. Still for that read-out and setting: under `C1=C[C@H](c2ccc(OCc3ccccc3)cc2)Oc2ccccc21` [1d, (R)-2-(4-(benzyloxy)phenyl)-2H-chromene] stands 92 to 93 °C; under `O[C@H]1Cc2ccccc2O[C@@H]1c1ccc(F)cc1` [3f, (2R,3S)-2-(4-fluorophenyl)chroman-3-ol], 99 to 100 °C. On the same count and under the same terms, then `Cc1cc(C)c2c(c1)O[C@H](c1ccccc1)[C@@H](O)C2` [3u, (2R,3S)-5,7-dimethyl-2-phenylchroman-3-ol], with 149 to 150 °C. As for `Oc1ccc2c(c1)C=C[C@H](c1ccccc1)O2` [1ac, (R)-2-phenyl-2H-chromen-6-ol], the melting point lay within 81 to 82 °C.
